The values that follow come from patent publication US9221773B2, “Benzamide derivatives” (The Translational Genomics Research Institute, priority 2009, dated 2015).

Holding throughout (type): cell-based
The test system of one assay is SKOV3 cell line. The assay is described as follows: CellTiter-Blue cell viability assay, single agent, SKOV3. The conditions noted are these: Homo sapiens, SK-OV-3, SKOV3 ovarian cancer cells, 72 hours treatment. The text has this: (§1) Cell viability in the presence of varying concentrations of the above listed compounds at different time points was used to assess cytotoxicity and the effect of the compounds on cell proliferation. The SKOV3 cell line was originally isolated in 1973 from the ascitic fluid of a patient with an ovarian cancer. SKOV3 is a hypodiploid human cell line. SKOV3 cells are resistant to tumor necrosis factor and to several cytotoxic drugs including diphtheria toxin, cis-platinum and adriamycin. The A2780 cell line is a human ovarian adenocarcinoma cell line originally derived from a biopsy from an untreated patient. The A2780/CP cell line is a line derived from the A2780 cell line selected for resistance to cis-platinum.
(§2) Cell viability was measured by the CellTiter-Blue® cell viability assay Promega (Madison, Wis.). This procedure measures the conversion of the indicator dye (resazurin) to resorufin, an indicator of cell viability. Following treatment, growth media was removed and cells were incubated with 20 μl of CellTiter-Blue® Reagent and growth media for 1-4 hours at 37° C. Fluorescence values were measured at 535/590 nm using a Beckman-Coulter DTX-880 microplate reader.
(§3) Cells were grown to 70% confluency, trypsinized, counted, and seeded in 96 well flat-bottom plates at a final concentration of 2.5×10^3-5×10^3 cells/well (Day 0). Cells were allowed to incubate in growth media for 24 hours to allow for maximum adhesion. Treatment with the test agents or standard agents began on Day 1 and continued for 72 hours. At the 72 hour timepoint, treatment containing media was removed. Viable cell numbers are quantified by the CellTiter-Blue® cell viability assay as described above. Experiments were repeated at least twice with the same concentrations to determine growth inhibitory activity. Results from these studies were used to calculate an IC50 value (concentration of drug that inhibits cell growth by 50 percent of control) for each compound.
(§4) For single agent and combination studies, data from each experiment was collected and expressed as % Cell Expansion using the following calculation: % Cell Expansion=(ftest/fvehicle)×100
(§5) Where ftest is the fluorescence of the tested sample, and fvehicle is the fluorescence of the vehicle in which the drug is dissolved. Dose response graphs and IC50 values were generated using Prism 4 software (GraphPad) using the following equation: […]
Background: The colour change of resazurin is a common sign of viable cells or microbes.

The subject of the next assay is A2780 cell line. The experiment in a line: CellTiter-Blue cell viability assay, single agent, A2780. The conditions noted are these: Homo sapiens, A2780 ovarian adenocarcinoma cells, 72 hours treatment.
Text: as §1, §2, §3, §4, §5

In a further assay the test system is A2780/CP cell line. The assay is described as follows: CellTiter-Blue cell viability assay, single agent, A2780/CP. The conditions noted are these: Homo sapiens, A2780C/P, A2780/CP cis-platinum resistant cells, 72 hours treatment.
Text: as §1, §2, §3, §4, §5

SMILES strings stand for the structures. Bounds are passed on as bounds.

What is called IC50 is the midpoint of a concentration-inhibition curve. Take `CC(C)C(C(=O)Nc1ncc(C(=O)NO)s1)c1ccccc1` (stereo not shown) [Compound 1, N-hydroxy-2-(3-methyl-2-phenylbutanamido)thiazole-5-carboxamide]: the IC50 in the assay with SKOV3 cell line was found to be 40 nM.
On to `CCC(C(=O)Nc1ncc(C(=O)NO)s1)c1ccccc1` (stereo not shown) [Compound 2, N-hydroxy-2-(2-phenylbutanamido)thiazole-5-carboxamide], for which the IC50 in the assay on A2780 cell line was found to be 0.5 nM; in the assay with SKOV3 cell line, 46 nM; in the assay on A2780/CP cell line it was 4 nM.
For `O=C(NO)c1cnc(NC(=O)C2(c3ccccc3)CC2)s1` [Compound 3, N-hydroxy-2-(1-phenylcyclopropanecarboxamido)thiazole-5-carboxamide], the IC50 in the assay with A2780 cell line is 1200 nM; with SKOV3 cell line, 4100 nM; with A2780/CP cell line, 7500 nM.
In the case of `CC(C)(C(=O)Nc1ncc(C(=O)NO)s1)c1ccccc1` [Compound 4, N-hydroxy-2-(2-methyl-2-phenylpropanamido)thiazole-5-carboxamide], the IC50 in the assay on A2780 cell line was found to be 900 nM; in the assay with SKOV3 cell line it was 1300 nM; in the assay with A2780/CP cell line it was 7500 nM.
`O=C(Cc1ccccc1)Nc1ncc(C(=O)NO)s1` [Compound 5, N-hydroxy-2-(2-phenylacetamido)thiazole-5-carboxamide]: the IC50 in the assay on A2780 cell line was 300 nM; in the assay on SKOV3 cell line it was 2100 nM; in the assay on A2780/CP cell line, 1600 nM.
`O=C(CCc1ccccc1)Nc1ncc(C(=O)NO)s1` [Compound 6, N-hydroxy-2-(3-phenylpropanamido)thiazole-5-carboxamide]: the IC50 in the assay on A2780 cell line worked out at 300 nM; with SKOV3 cell line it was 500 nM; in the assay on A2780/CP cell line it was 3200 nM.
On to `COC(C(=O)Nc1ncc(C(=O)NO)s1)c1ccccc1` (stereo not shown) [Compound 7, N-hydroxy-2-(2-methoxy-2-phenylacetamido)thiazole-5-carboxamide], for which the IC50 in the assay on A2780 cell line stood at 40 nM; in the assay with SKOV3 cell line, 70 nM; in the assay on A2780/CP cell line, 20 nM.
As to `CCC(C(=O)Nc1ncc(C(=O)NO)s1)c1ccc(OC)cc1` (stereo not shown) [Compound 8, N-hydroxy-2-(2-(4-methoxyphenyl)butanamido)thiazole-5-carboxamide], the IC50 in the assay with A2780 cell line, in the assay with SKOV3 cell line and in the assay with A2780/CP cell line was less than 0.1 nM throughout.
Turning to `CC(C(=O)Nc1ncc(C(=O)NO)s1)c1ccccc1` (stereo not shown) [Compound 9, N-hydroxy-2-(2-phenylpropanamido)thiazole-5-carboxamide], the IC50 came out at 30 nM in the assay with A2780 cell line, 30 nM in the assay with SKOV3 cell line and 4.8 nM in the assay on A2780/CP cell line.
In the case of `CC(C)C(C(=O)Nc1ncc(C(=O)NO)s1)c1ccc(Cl)cc1` (stereo not shown) [Compound 10, 2-(2-(4-chlorophenyl)-3-methylbutanamido)-N-hydroxythiazole-5-carboxamide], the IC50 with A2780 cell line turned out to be 1.7 nM; in the assay with SKOV3 cell line it was 4 nM; in the assay with A2780/CP cell line, 6.2 nM.
As to `CC(C)(Cc1ccccc1)C(=O)Nc1ncc(C(=O)NO)s1` [Compound 11, 2-(2,2-dimethyl-3-phenylpropanamido)-N-hydroxythiazole-5-carboxamide], the IC50 with A2780 cell line came to 3800 nM; with SKOV3 cell line it was 7500 nM; in the assay with A2780/CP cell line, 3800 nM.
Turning to `CC(C)C(C(=O)Nc1ccc(C(=O)NO)cc1)c1ccc(Cl)cc1` (stereo not shown) [Compound 12, 4-(2-(4-chlorophenyl)-3-methylbutanamido)-N-hydroxybenzamide], the IC50 with A2780 cell line turned out to be 30 nM; with SKOV3 cell line, 40 nM; in the assay with A2780/CP cell line, 3 nM.
As for `CCC(C(=O)Nc1ncc(C(=O)NO)s1)c1ccc(Br)cc1` (stereo not shown) [Compound 13, 2-(2-(4-bromophenyl)butanamido)-N-hydroxythiazole-5-carboxamide], the IC50 in the assay on A2780 cell line was 0.5 nM; in the assay on SKOV3 cell line it was 2.5 nM; with A2780/CP cell line, 0.08 nM.
For `COCCC(C(=O)Nc1ncc(C(=O)NO)s1)c1ccccc1` (stereo not shown) [Compound 14, N-hydroxy-2-(4-methoxy-2-phenylbutanamido)thiazole-5-carboxamide], the IC50 is 2.4 nM in the assay on A2780 cell line, 80 nM in the assay with SKOV3 cell line and 8.7 nM in the assay on A2780/CP cell line.
The like results for `CCC(C(=O)Nc1ccc(C(=O)NO)cc1)c1ccc(OC)cc1` (stereo not shown) [Compound 15, N-hydroxy-4-(2-(4-methoxyphenyl)butanamido)benzamide] were, in that order, 0.04 nM, 20 nM and 0.3 nM.
Regarding `CCC(C(=O)Nc1ncc(C(=O)NO)s1)c1ccc(-c2ccccc2)cc1` (stereo not shown) [Compound 17, 2-(2-(biphenyl-4-yl)butanamido)-N-hydroxythiazole-5-carboxamide], the IC50 is less than 0.1 nM with A2780 cell line, 0.2 nM with SKOV3 cell line and 0.9 nM with A2780/CP cell line.
For `CCC(C(=O)Nc1ncc(C(=O)NO)s1)c1ccc(-c2cncnc2)cc1` (stereo not shown) [Compound 18, N-hydroxy-2-(2-(4-(pyrimidin-5-yl)phenyl)butanamido)thiazole-5-carboxamide], the IC50 was determined as 440 nM in the assay on A2780 cell line, 100 nM in the assay on SKOV3 cell line and 140 nM with A2780/CP cell line.
As to `CCC(C(=O)Nc1ncc(C(=O)NO)s1)c1ccc(F)cc1` (stereo not shown) [Compound 19, 2-(2-(4-fluorophenyl)butanamido)-N-hydroxythiazole-5-carboxamide], the IC50 was less than 0.1 nM in the assay on A2780 cell line, 8.9 nM in the assay on SKOV3 cell line and 3 nM in the assay on A2780/CP cell line.
With `CCC(C(=O)Nc1ncc(C(=O)NO)s1)c1cccc(F)c1` (stereo not shown) [Compound 20, 2-(2-(3-fluorophenyl)butanamido)-N-hydroxythiazole-5-carboxamide], the figures for the IC50 in the assay with A2780 cell line, in the assay with SKOV3 cell line and in the assay with A2780/CP cell line were 2.4 nM, 4.3 nM and 100 nM, respectively.
In the case of `CC(C)C(C(=O)Nc1ncc(C(=O)NO)s1)c1ccc(O)cc1` (stereo not shown) [Compound 21, N-hydroxy-2-(2-(4-hydroxyphenyl)-3-methylbutanamido)thiazole-5-carboxamide], the IC50 with A2780 cell line came out at 60 nM; in the assay with SKOV3 cell line, 20 nM; in the assay with A2780/CP cell line it was 40 nM.
Regarding `CCC(C(=O)Nc1ncc(C(=O)NO)s1)c1cccc(OC)c1` (stereo not shown) [Compound 22, N-hydroxy-2-(2-(3-methoxyphenyl)butanamido)thiazole-5-carboxamide], the figures for the IC50 in the assay on A2780 cell line, in the assay with SKOV3 cell line and in the assay with A2780/CP cell line were 600 nM, 30 nM and 300 nM, respectively.
Turning to `CCC(C(=O)Nc1ncc(C(=O)NO)s1)c1ccccc1OC` (stereo not shown) [Compound 23, N-hydroxy-2-(2-(2-methoxyphenyl)butanamido)thiazole-5-carboxamide], the IC50 in the assay on A2780 cell line came out at 100 nM; with SKOV3 cell line it was 2300 nM; in the assay with A2780/CP cell line, 500 nM.
Turning to `COCCC(C(=O)Nc1ncc(C(=O)NO)s1)c1ccc(-c2ccccc2)cc1` (stereo not shown) [Compound 24, 2-(2-(biphenyl-4-yl)-4-methoxybutanamido)-N-hydroxythiazole-5-carboxamide], the IC50 in the assay on A2780 cell line turned out to be 20 nM; with SKOV3 cell line, 30 nM; with A2780/CP cell line, 17 nM.
Regarding `CCC(C(=O)Nc1ccc(C(=O)NO)cc1)c1ccc(Br)cc1` (stereo not shown) [Compound 25, 4-(2-(4-bromophenyl)butanamido)-N-hydroxybenzamide], the results for the IC50 in the assay with A2780 cell line, in the assay with SKOV3 cell line and in the assay with A2780/CP cell line were 1.1 nM, 100 nM and 20 nM, respectively.
In the case of `CCC(C(=O)Nc1ccc(C(=O)NO)cc1)c1ccc(-c2ccccc2)cc1` (stereo not shown) [Compound 26, 4-(2-(biphenyl-4-yl)butanamido)-N-hydroxybenzamide], the IC50 with A2780 cell line worked out at 0.3 nM; with SKOV3 cell line, 1.1 nM; in the assay with A2780/CP cell line it was 1.7 nM.
The like results for `COCCC(C(=O)Nc1ccc(C(=O)NO)cc1)c1ccccc1` (stereo not shown) [Compound 27, N-hydroxy-4-(4-methoxy-2-phenylbutanamido)benzamide] were, in that order, 16 nM, 900 nM and 70 nM.
